In US12157730B2, “Heteroaryl derivative, method for producing same, and pharmaceutical composition comprising same as effective component” (VORONOI INC., priority 2019, dated 2024):

The molecules below were run against T1, Ba/F3 cell EGFR Exon20 ins NPH (Homo sapiens, UniProt P00533, INS773NPH) (assay: Ba/F3 cell proliferation suppression, EGFR Exon20 ins NPH). Settings: GI50 class; Ba/F3 cell line with NPH inserted at Exon20 of EGFR; 72 hours.
T1 construct: expressed in transfected cells; host or cells: Ba/F3
Assay type: cell-based
Procedure: The following experiment was carried out to evaluate the suppression activity of the compounds according to the present invention against proliferation of Ba/F3 and lung cancer cells which express EGFR mutations.
Of the cancer cell lines expressing the EGFR gene, A549 was cultured after adding 10% FBS (HyClone) to DMEM (Invitrogen), and RPMI-1640 (Invitrogen) with 10% FBS was used for the other cancer cells. For the Ba/F3 cells, RPMI-1640 with 10% FBS and 5 ng/ml IL-3 (R&D Systems) was used. The transduced Ba/F3 cells were cultured by adding 1 ug/ml puromycin (Invitrogen) to the same medium.
24 hours before treatment with the compounds, 3000 to 5000 cells were distributed into each well of a white clear bottom 96 well plate (Corning). The compounds were diluted in dimethylsulfoxide (dilution ratio 3:1; 12 concentrations total) and injected 0.5 ul each for a final concentration of 0.3 nM to 50 um. As for measurement of live cells, 72 hours after treatment with the compounds, a CellTiter-Glo luminescent cell-viability reagent (Promega) was used to store the cells at room temperature for 10 minutes, followed by measurement of luminescence using a reader (SynergyNeo, Biotek). Each test was repeated three times.
The result was calculated as a cell growth ratio (%) compared to a control. The program GraphPad Prism version 5.0 was used to draw the graphs and calculate the GI50 values.

Ba/F3 (NPH) Activity | SMILES
A (GI50 < 50 nM) | C=CC(=O)Nc1cc(Nc2cc(N3OCC[C@@H]3c3cccc(F)c3F)ncn2)c(OC)cc1N1CCN(CC)CC1 [compound 297, N-(5-((6-((R)-3-(2,3-difluorophenyl)isoxazolidine-2-yl)pyrimidine-4-yl)amino)-2-(4-ethylpiperazine-1-yl)-4-methoxyphenyl) acrylamide]
A (GI50 < 50 nM) | C=CC(=O)Nc1cc(Nc2cc(N3OCC[C@@H]3c3cccc(F)c3Cl)ncn2)c(OC)cc1N1CCC(N2C[C@H]3C[C@@H]2CO3)CC1 [compound 634, N-(2-(4-((1R,4R)-2-oxa-5-azabicyclo [2.2.1]heptane-5-yl)piperidine-1-yl)-5-((6-((R)-3-(2-chloro-3-fluorophenyl)isoxazolidine-2-yl)pyrimidine-4-yl)amino)-4-methoxyphenyl) acrylamide]
A (GI50 < 50 nM) | C#Cc1cccc([C@H]2CCON2c2cc(Nc3cc(NC(=O)C=C)c(N4CC[C@@H](N(C)C)C4)cc3OC)ncn2)c1 [compound 653, N-(2-((R)-3-(dimethylamino)pyrolidine-1-yl)-5-((6-((R)-3-(3-ethynylphenyl)isoxazolidine-2-yl)pyrimidine-4-yl)amino)-4-methoxyphenyl) acrylamide]
B (50 nM ≤ GI50 < 500 nM) | C=CC(=O)Nc1cc(Nc2cc(N3OCC[C@@H]3c3ccc(C)nc3)ncn2)c(OC)cc1N1CCN(CC)CC1 [Example 42, N-(2-(4-ethylpiperazine-1-yl)-4-methoxy-5-((6((R)-3-(6-methylpyridine-3-yl)isoxazolidine-2-yl)pyrimidine-4-yl)amino)phenyl) acrylamide]
A (GI50 < 50 nM) | C#Cc1cccc([C@H]2CCON2c2cc(Nc3cc(NC(=O)C=C)c(N4CCC(N5CCN(C6CC6)CC5)CC4)cc3OC)ncn2)c1 [Example 165, N-(2-(4-(4-cyclopropylpiperazine-1-yl)piperidine-1-yl)-5-((6-((R)-3-(3-ethynylphenyl)isoxazolidine-2-yl)pyrimidine-4-yl)amino)-4-methoxyphenyl) acrylamide]
A (GI50 < 50 nM) | C=CC(=O)Nc1cc(Nc2cc(N3OCC[C@@H]3c3cccc(C#N)c3)ncn2)c(OC)cc1N1CCC(N2CCN(C3CC3)C[C@H]2C)CC1 [Example 131, N-(5-((6-((R)-3-(3-cyanophenyl)isoxazolidine-2-yl)pyrimidine-4-yl)amino)-2-(4-((R)-4-cyclopropyl-2-methylpiperazine-1-yl)piperidine-1-yl)-4-methoxyphenyl) acrylamide]
B (50 nM ≤ GI50 < 500 nM) | C=CC(=O)Nc1cc(Nc2cc(N3OCC[C@@H]3c3ccc4ccccc4c3)ncn2)c(OC)cc1N1CCC(N2CCN(C3CCC3)CC2)CC1 [Example 190, N-(2-(4-(4-cyclobutylpiperazine-1-yl)piperidine-1-yl)-4-methoxy-5-((6-((R)-3-(naphthalene-2-yl)isoxazolidine-2-yl)pyrimidine-4-yl)amino)phenyl)acrylamide]
A (GI50 < 50 nM) | C=CC(=O)Nc1cc(Nc2cc(N3OCC[C@@H]3c3ccccc3)ncn2)c(OC)cc1N1CCC(N2CCN(C3CCOCC3)CC2)CC1 [Example 102, N-(4-methoxy-5-((6-((R)-3-phenylisoxazolidine-2-yl)pyrimidine-4-yl)amino)-2-(4-(4-(tetrahydro-2H-pyran-4-yl)piperazine-yl)piperidine-yl)phenyl)acrylamide]
A (GI50 < 50 nM) | C=CC(=O)Nc1cc(Nc2cc(N3OCC[C@@H]3c3cc(F)cc(Cl)c3)ncn2)c(OC)cc1N1CCC(N2CCN(C3CC3)CC2)CC1 [Example 163, N-(5-((6-((R)-3-(3-chloro-5-fluorophenyl)isoxazolidine-2-yl)pyrimidine-4-yl)amino)-2-(4-(4-cyclopropylpiperazine-1-yl)piperidine-1-yl)-4-methoxyphenyl) acrylamide]
B (50 nM ≤ GI50 < 500 nM) | C=CC(=O)Nc1cc(Nc2cc(N3OCC[C@@H]3c3ccc(Cl)cc3)ncn2)c(OC)cc1N1CC[C@@H](N(C)C)C1 [compound 695, N-(5-((6-((R)-3-(4-chlorophenyl)isoxazolidine-2-yl)pyrimidine-4-yl)amino)-2-((R)-3-(dimethylamino)pyrolidine-1-yl)-4-methoxyphenyl) acrylamide]
A (GI50 < 50 nM) | C=CC(=O)Nc1cc(Nc2cc(N3OCC[C@@H]3c3cccc(Cl)c3C)ncn2)c(OC)cc1N1CCC(N2CCO[C@H](C)C2)CC1 [compound 530, N-(5-((6-((R)-3-(3-chloro-2-methylphenyl)isoxazolidine-2-yl)pyrimidine-4-yl)amino)-4-methoxy-2-(4-((R)-2-methylmorpholino)piperidine-1-yl)phenyl) acrylamide]
A (GI50 < 50 nM) | C=CC(=O)Nc1cc(Nc2cc(N3OCC[C@@H]3c3cc(F)cc(F)c3)ncn2)c(OC)cc1N1CCC(N2CCOC[C@H]2C)CC1 [compound 842, N-(5-((6-((R)-3-(3,5-difluorophenyl)isoxazolidine-2-yl)pyrimidine-4-yl)amino)-4-methoxy-2-(4-((R)-3-methylmorpholino)piperidine-1-yl)phenyl) acrylamide]
A (GI50 < 50 nM) | C=CC(=O)Nc1cc(Nc2cc(N3OCC[C@@H]3c3ccc(F)c(Cl)c3F)ncn2)c(OC)cc1N1CCN(C)CC1 [compound 604, N-(5-((6-((R)-3-(3-chloro-2,4-difluorophenyl)isoxazolidine-2-yl)pyrimidine-4-yl)amino)-4-methoxy-2-(4-methylpiperazine-1-yl)phenyl)acrylamide]
C (500 nM ≤ GI50 < 5000 nM) | C=CC(=O)Nc1cc(Nc2cc(N3OCC[C@@H]3c3ccc(C)nc3)ncn2)c(OC)cc1N1C[C@@H]2C[C@H]1CO2 [Example 233, N-(2-((1S,4S)-2-oxa-5-azabicyclo[2.2.1]heptane-5-yl)-4-methoxy-5-((6-((R)-3-(6-methylpyridine-3-yl)isoxazolidine-2-yl)pyrimidine-4-yl)amino)phenyl) acrylamide]
A (GI50 < 50 nM) | C=CC(=O)Nc1cc(Nc2cc(N3OCC[C@@H]3c3cccc(OC)c3)ncn2)c(OC)cc1N1CCC(N2CCN(C3CC3)CC2)CC1 [Example 65, N-(2-(4-(4-cyclopropylpiperazine-1-yl)piperidine-1-yl)-4-methoxy-5-((6-((R)-3-(3-methoxyphenyl)isoxazolidine-2-yl)pyrimidine-4-yl)amino)phenyl) acrylamide]
B (50 nM ≤ GI50 < 500 nM) | C=CC(=O)Nc1cc(Nc2cc(N3OCC[C@H]3Cc3ccccc3)ncn2)c(OC)cc1N(C)CCN(C)C [compound 973, N-(5-((6-((R)-3-benzylisoxazolidine-2-yl)pyrimidine-4-yl)amino)-2-((2-(dimethylamino)ethyl) (methyl)amino)-4-methoxyphenyl) acrylamide]
A (GI50 < 50 nM) | C=CC(=O)Nc1cc(Nc2cc(N3OCC[C@@H]3c3cccc(Cl)c3Cl)ncn2)c(OC)cc1N1CCN(C2CC2)[C@H](C)C1 [compound 564, N-(2-((R)-4-cyclopropyl-3-methylpiperazine-1-yl)-5-((6-((R)-3-(2,3-dichlorophenyl)isoxazolidine-2-yl)pyrimidine-4-yl)amino)-4-methoxyphenyl) acrylamide]
